A short description of this data set: Vacuum drying of Form B. It is filed as physicochemical. Particulars: vacuum drying at room temperature. On the procedure:
A 1,4-dioxane solution of Form A was prepared by dissolving 20 mg in 0.2-1.0 mL of 1,4-dioxane until clear solution was obtained. Then, water was added while maintaining magnetic agitation until precipitate appeared. […] XRPD data was obtained on the wet-cake prior to drying.
Form B can only be prepared in a location where Form C has rigorously been excluded, otherwise the conditions to prepare Form B (described above) will instead produce Form C, the most thermodynamically stable form identified.

This is an account of results in patent US12662458B2, “Solid forms of a compound” (Denali Therapeutics Inc., priority 2020, dated 2026).

SMILES strings stand for the structures. “Also recorded” adds a separate entry of the source.

Consider `O=C(COc1ccc(Cl)cc1)NC12CC(c3nnc([C@H]4C[C@@H](OC(F)(F)F)C4)o3)(C1)C2` [Form B, 2-(4-chlorophenoxy)-N-[3-[5-[cis-3-(trifluoromethoxy)cyclobutyl]-1,3,4-oxadiazol-2-yl]-1-bicyclo[1.1.1]pentanyl]acetamide], for which the “form after vacuum drying” value is “converted to Form A; also recorded: desolvates to Form A”.
